Molecular target: T1, DPP-IV activity from human colonic carcinoma cell extracts (Caco-2) (Homo sapiens, UniProt P27487)
T1 construct: Cell extract is prepared from cells solubilized in 10 mM Tris HCI, 0.15 M NaCI, 0.04 t.i.u.aprotinin, 0.5% nonidet-P40; host or cells: Caco-2, differentiated to induce DPP-IV expression; detergent-solubilized extract
Experiment: caco-2 DPP-IV Assay (CaCo2 extract, fluorescence, H-Gly-Pro-AMC substrate)
Type: biochemical
Conditions: solubilized Caco-2 protein extract; 11-point dose-response curves, 4 parameter logistic function
Description: As indicated above, all of the compounds, and their corresponding pharmaceutically-acceptable salts, are useful in inhibiting DPP-IV. […] The human colonic carcinoma cell line Caco-2 was obtained from the American Type Culture Collection (ATCC HTB 37). Differentiation of the cells to induce DPP-IV expression was accomplished as described by Reisher, et al. (Proc. Natl. Acad. Sci., Vol. 90, pgs. 5757-5761 (1993)). Cell extract is prepared from cells solubilized in 10 mM Tris HCI, 0.15 M NaCI, 0.04 t.i.u.aprotinin, 0.5% nonidet-P40, pH 8.0, which is centrifuged at 35,000 g for 30 min at 4° C. to remove cell debris.
The […] assay is conducted by adding 20 μg solubilized Caco-2 protein or purified porcine kidney DPP-IV, in a final volume of 10 ul in assay buffer (25 mM Tris HCl pH 7.4, 140 mM NaCl, 10 mM KCl, 0.1% Triton-x-100) to microtiter plate wells. […] The endpoint is determined by measuring absorbance at 405 nm in a Labsystems microtiter plate reader.
Activity of CaCo2 extract is also measured employing a modified version of the assay described in Kubota, et al. (Clin. Exp. Immunol., Vol. 89, pgs. 192-197 (1992)). […] After the 10 min. reaction, florescence is measured using a Tecan Ultra fluorimeter (Excitation 360 nm Emission 465 nm). […]

T1 sequence (P27487 whole entry): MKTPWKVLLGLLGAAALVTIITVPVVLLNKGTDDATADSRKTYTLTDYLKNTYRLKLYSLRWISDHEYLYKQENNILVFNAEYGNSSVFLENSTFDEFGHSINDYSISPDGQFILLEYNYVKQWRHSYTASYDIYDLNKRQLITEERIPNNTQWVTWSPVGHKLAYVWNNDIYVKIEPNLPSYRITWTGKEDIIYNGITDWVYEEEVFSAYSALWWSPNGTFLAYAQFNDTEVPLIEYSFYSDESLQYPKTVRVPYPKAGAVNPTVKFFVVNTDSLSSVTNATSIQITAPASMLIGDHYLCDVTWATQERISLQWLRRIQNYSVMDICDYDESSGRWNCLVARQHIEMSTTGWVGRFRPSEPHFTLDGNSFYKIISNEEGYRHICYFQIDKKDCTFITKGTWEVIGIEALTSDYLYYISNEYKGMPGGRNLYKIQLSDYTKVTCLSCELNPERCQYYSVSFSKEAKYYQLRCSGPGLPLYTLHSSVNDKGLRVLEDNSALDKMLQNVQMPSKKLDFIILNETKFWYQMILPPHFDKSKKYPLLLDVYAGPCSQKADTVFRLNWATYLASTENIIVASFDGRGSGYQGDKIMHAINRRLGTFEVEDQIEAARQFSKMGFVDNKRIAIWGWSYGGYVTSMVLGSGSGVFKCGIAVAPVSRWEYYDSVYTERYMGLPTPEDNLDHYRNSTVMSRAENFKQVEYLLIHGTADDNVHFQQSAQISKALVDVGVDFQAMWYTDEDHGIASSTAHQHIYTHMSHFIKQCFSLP

- IC50: 580 nM
Structure (SMILES): N[C@@H](CC(=O)NC1Cc2ccccc2NC1=O)Cc1ccccc1F (stereo partly drawn) [Example 1, (3R)-3-Amino-4-(2-fluorophenyl)-N-(2-oxo-1,2,3,4-tetrahydroquinolin-3-yl)butanamide]
